Experimental data taken from publication PMC10830420, “Structures, functions and adaptations of the human LINE-1 ORF2 protein” (Nature, 2023).
Like-named read-outs stand apart in the source and are kept apart here.

Legend:
ORF2p core [1] = target: T1, ORF2p core (Homo sapiens, UniProt O00370); assay: Homogeneous time-resolved fluorescence (HTRF) ORF2p RT assay; type: biochemical
T1 construct: His6-MBP-3C-ORF2p (238-1061, ORFeus-Hs) in pET41; His6-MBP (3C protease site) (N, cleaved yes); made in house; host or cells: E. coli
Protocol: (§1) ORF2p core was preincubated with a template:primer containing a single site for the incorporation of a given nucleotide analogue. The primer/template sequence shown in the panel a illustrates the case of single incorporation of 3TC, with a single G for incorporation; the incoming template sequence for entecavir and carbovir has a single C, and for d4T a single A, each at position labeled “N”. Reactions were incubated for one minute at 37 °C with a 100 nM dNTP mixture and increasing concentrations of listed inhibitors. IC50 index, fold = IC50 (drug, µM) ÷ [dNTP] […] Fluorescein-labeled dNTPs (here, uracil-TP) are incorporated by ORF2p into a biotinylated primer, here shown against a poly(A) template. Detection is then achieved using FRET with a terbium cryptate labeled streptavidin, and the time-resolved technique and time-delayed emission from terbium cryptate reduces background from other fluorescent chemicals in the mix. In the presence of ORF2p RT inhibitors (RTIs), base incorporation is stopped and FRET signal is lost. […]
(§2) ORF2p reverse transcriptase activity assays […]
For HTRF RT assays157, 25 nM ORF2p core and 12. 5 nM t em plat e: primer was incubated at 25°C for 60 minutes
with 10 nM of fluorescein- 12- dUTP (Thermo), 1 µM each (dATP,dCTP,dGTP), and test compound in a 15 µL
reaction with buffer containing 50 mM Tris-HCl, 50 mM KCl, 10 mM MgCl2, 10 mM DTT, pH 8.1, and 1% final

[2] = test system: L1 retrotransposition reporter in HeLa cells; assay: LINE-1 dual luciferase retrotransposition assay in HeLa cells; type: cell-based, human; details: for IC50: HeLa cells, stable dual luciferase L1 reporter, normalized to cell viability, n = 3 wells
ORF2p core [3] = target: T1, ORF2p core; assay: Gel-based L1 RT assay, ORF2p core, inhibition by NRTI triphosphates; type: biochemical; details: 100 nM dNTP mixture; for IC50: NTP forms of NRTIs, one minute at 37 °C
Protocol: as §1, §2
Gel-based RT activity assays consisted of pr e-incubating RTs with annealed DNA/RNA, DNA/DNA, or RNA/RNA 5’- end- radiolabeled or 5’-end-Cy5- o r FAM-labeled template:primer duplex or hybrid duplex and, where indicated, inhibitor in the presence of 0.1- 1 μ M dNTP or NTP mixture, 0.25 mM EDTA, 50 mM NaCl, and 25 mM Tris (pH 8) for 10 min at 37°C. Labeled nucleic acids were purchased from Dharmacon or IDT. Unless otherwise indicated, 15 μL reactions were initiated by the addition of 1.3 mM MgCl2, incubated for 10 min at 37 °C, and then stopped by the addition of 15 μL of formamide/EDTA (25 mM) mixture and incubated at 95 °C for 10 min. 3 μL reaction samples were subjected to denaturing 8 M urea 20% PAGE to resolve products followed by signal quantification (ImageQuant 5.2, GE Healthcare Bio- Sciences) through phosphorimaging (Amersham Typhoon 5, Cytivia). Scanned gel images are […]
minor products; original images are provided in an Extended Data file. […]

[4] = test system: interferon production in THP1 cells; assay: Interferon reporter assay in THP1 cells (secreted luciferase); type: cell-based, human
Protocol: Culture Collection ( AT CC); THP1-Dual and THP1- Dual KO-TREX1 cells were from InvivoGen. All cell lines were maintained at 37 °C and 5% CO2 and validated and tested for mycoplasma. All plasmids and affinity reagents are described in Supplementary Tables 4-5 , respectively and available from Addgene at https://www.addgene.org/browse/article/28243724/. […]
Interferon reporter assay in THP1 cells
The type I interferon response was evaluated using THP1 -Dual and THP1-Dual KO-TREX1 cells (InvivoGen), which secrete a Lucia luciferase reporter gene under control of an interferon- responsive promoter. THP1-Dual KO-TREX1 cell were generated by stable biallelic knock-out of the TREX1 gene. Cell were treated with a dose titration of test compound in the presence of 1 µM 5- aza-2ʹ-deoxycytidine (decitabine, Sigma, #189825), which de- represses LINE-1121. Type 1 Interferon and cell viability were assessed after five days of treatment. QUANTI-LUC solution containing stabilizer was added to the cell supernatant and luminescence was measured on a p la t e reader, and cells were assessed for cell viability using CellTiter-Glo (Promega, #G9683) according to the manufacturer’s instructions.
LINE-1 dual luciferase retrotransposition assay
To assess the potency of inhibiting LINE-1 retrotransposon, a stable clonal dual luciferase L1 reporter cell line was generated and reported as described130,133 in the HeLa Tet-On 3G cell line (Takara, ). SB100x161 was used to integrate pRT006.2, a vector similar to pYX056 130 , which contains a bi-directional Tet-On promoter expressing both control Renilla luciferase and LINE-1 ORFeus-Hs Firefly luciferase antisense intron (AI) r epor t er 79,162. A single cell clone was selected with the highest doxycycline-induced luciferase signal vs baseline. Cells were mixed with compounds and induced for reporter expression with 500 ng/mL doxycycline (Sigma, #D9891) for 72 hours. Luminescence was measured using the Dual-Glo Luciferase Assay System (Promega, #E2940) following the manufacturer’s instructions, and the ratio of Firefly to Renilla Luciferase activity was used to measure […]
Telomerase activity assay
The human telomerase assay was performed with telomerase in MCF- 7 cell lysates using the Telo TAGGG Telomerase PCR ELISAplus kit (Roche). Test compounds (NTPs) were serially diluted in water, mixed with 0.2 µg of M CF- 7 lysate, and pre- incubated at room temperature for 15 minutes. Then the reaction was carried out for 30 minutes, amplified using PCR, and visualized colorimetrically per t he manufacturer’s instructions.
Cells were lysed in ice cold RIPA buffer containing 1x protease inhibitor tablet (Thermo), centrifuged for 10 minutes, and clarified lysates were quantified by BCA assay. […]

[5] = target: T2, human telomerase RT (TERT) (Homo sapiens, UniProt O14746); assay: Telomerase activity assay in MCF-7 cell lysate; type: biochemical; details: NRTI triphosphates
T2 construct: of human telomerase RT (TERT) by NRTI triphosphates in a biochemical assay in MCF-7 cell lysate; endogenous in cells; host or cells: MCF-7 cell lysate
T2 sequence (O14746 whole entry): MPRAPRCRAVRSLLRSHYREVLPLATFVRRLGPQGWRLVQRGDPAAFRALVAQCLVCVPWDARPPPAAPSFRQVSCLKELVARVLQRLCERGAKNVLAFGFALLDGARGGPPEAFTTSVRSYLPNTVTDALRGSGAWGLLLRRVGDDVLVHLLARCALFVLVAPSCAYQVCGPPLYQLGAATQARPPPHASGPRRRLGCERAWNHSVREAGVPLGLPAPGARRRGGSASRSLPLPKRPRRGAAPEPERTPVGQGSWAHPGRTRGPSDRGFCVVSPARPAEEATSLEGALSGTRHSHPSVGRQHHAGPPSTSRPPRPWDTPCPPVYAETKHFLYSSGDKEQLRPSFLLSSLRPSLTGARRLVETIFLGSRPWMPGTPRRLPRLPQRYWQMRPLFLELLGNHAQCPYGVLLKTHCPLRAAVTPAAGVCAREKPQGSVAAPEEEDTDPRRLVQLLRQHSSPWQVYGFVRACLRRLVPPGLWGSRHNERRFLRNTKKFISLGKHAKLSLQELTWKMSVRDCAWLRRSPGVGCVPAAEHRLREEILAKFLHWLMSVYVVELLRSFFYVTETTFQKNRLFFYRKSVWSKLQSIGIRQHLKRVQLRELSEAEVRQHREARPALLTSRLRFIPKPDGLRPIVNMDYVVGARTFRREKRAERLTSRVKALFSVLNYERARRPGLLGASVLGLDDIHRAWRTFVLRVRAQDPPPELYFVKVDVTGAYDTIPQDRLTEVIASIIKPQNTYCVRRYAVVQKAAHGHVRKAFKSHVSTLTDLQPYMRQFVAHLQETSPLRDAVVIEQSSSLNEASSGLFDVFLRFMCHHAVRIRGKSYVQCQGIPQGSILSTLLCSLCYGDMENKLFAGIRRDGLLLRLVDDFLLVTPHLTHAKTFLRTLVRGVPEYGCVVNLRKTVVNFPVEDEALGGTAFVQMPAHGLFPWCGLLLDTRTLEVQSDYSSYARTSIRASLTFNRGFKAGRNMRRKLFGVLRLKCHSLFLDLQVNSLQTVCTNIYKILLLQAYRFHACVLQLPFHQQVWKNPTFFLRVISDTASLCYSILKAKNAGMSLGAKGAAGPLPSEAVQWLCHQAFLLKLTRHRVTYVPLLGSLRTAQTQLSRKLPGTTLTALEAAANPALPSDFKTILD

[6] = HTRF, NRTIs as triphosphates, n = 3 wells

Cc1cn([C@H]2C[C@H](N=[N+]=[N-])[C@@H](CO)O2)c(=O)[nH]c1=O [AZT, zidovudine]
fold change in ORF2p inhibitory activity compared with ddTTP and d4T (ORF2p core [1]): greater than 20 fold
IC50 (ORF2p core [1]; HTRF, NRTI NTPs): 0.2 to 0.75 µM
IC50 ([2]; read-out: IC50): 1.8 µM

Nc1nc2c(ncn2[C@H]2C=C[C@@H](CO)C2)c(=O)[nH]1 [Carbovir, carbovir]
IC50 index, fold = IC50 (drug, µM) ÷ [dNTP] (natural counterpart, 0.1 µM) (ORF2p core [3]): 64 fold
IC50 (ORF2p core [3]): 5 to 7 µM

CC(C)Nc1cccnc1N1CCN(C(=O)c2cc3cc(NS(C)(=O)=O)ccc3[nH]2)CC1 [Delavirdine, delavirdine]
IC50 (ORF2p core [1]; [6]): > 30 µM

O=C1Nc2ccc(Cl)cc2[C@@](C#CC2CC2)(C(F)(F)F)O1 [Efavirenz, efavirenz]
IC50 (ORF2p core [1]; [6]): > 30 µM

C=C1[C@H](CO)[C@@H](O)C[C@@H]1n1cnc2c(=O)[nH]c(N)nc21 [Entecavir, entecavir]
IC50 index, fold = IC50 (drug, µM) ÷ [dNTP] (natural counterpart, 0.1 µM) (ORF2p core [3]): 5.4 fold
IC50 (ORF2p core [3]): 0.4 to 0.6 µM

Cc1cc(C#N)cc(C)c1Oc1nc(Nc2ccc(C#N)cc2)nc(N)c1Br [Etravirine, etravirine]
IC50 (ORF2p core [1]; [6]): > 30 µM

Nc1nc(=O)n([C@@H]2CS[C@H](CO)O2)cc1F [FTC, emtricitabine]
IC50 ([2]; Homo sapiens, HeLa): 1.1 µM

O=C(O)P(=O)(O)O [Foscarnet, foscarnet]
IC50 (ORF2p core [1]; [6]): > 100 µM

Cc1ccnc2c1NC(=O)c1cccnc1N2C1CC1 [Nevirapine, nevirapine]
inhibition of ORF2p (ORF2p core [1]; HTRF, 1 mM): no inhibition
IC50 (ORF2p core [1]; [6]): > 1000 µM
IC50 ([2]; read-out: IC50): > 30 µM

Cc1cn(C2C=CC(COP(=O)(OCOC(=O)OC(C)C)OCOC(=O)OC(C)C)O2)c(=O)[nH]c1=O (stereo not shown) [POC d4T, d4T bis(isopropoxycarbonyloxymethyl)phosphate]
baseline and decitabine-induced IFN production ([4]; 10 µM, THP1 cells, 1 µM decitabine): reduced IFN further
fold more potent than d4T in suppressing interferon secretion ([4]; TREX1 knockout THP1 cells, 5 days, 1 µM decitabine): approximately 30 fold

Cc1cc(/C=C/C#N)cc(C)c1Nc1ccnc(Nc2ccc(C#N)cc2)n1 [Rilpivirine, rilpivirine]
IC50 (ORF2p core [1]; [6]): > 30 µM

CC(C)OC(=O)[C@H](C)N[P@](=O)(OC[C@H]1O[C@@H](n2ccc(=O)[nH]c2=O)[C@](C)(F)[C@@H]1O)Oc1ccccc1 [Sofosbuvir, sofosbuvir]
inhibition in cell-based L1 assays [2]: no inhibition
IC50 ([2]; Homo sapiens, HeLa): > 100 µM

C[C@H](Cn1cnc2c(N)ncnc21)OCP(=O)(O)O [Tenofovir, tenofovir]
IC50 ([2]; Homo sapiens, read-out: IC50): 3.2 µM

Cc1cn([C@H]2C=C[C@@H](COP(=O)(O)OP(=O)(O)OP(=O)(O)O)O2)c(=O)[nH]c1=O [d4T-TP]
IC50 (ORF2p core [1]; HTRF, NRTI NTPs): 0.009 µM
IC50 [5]: 15 µM

Cc1cn([C@H]2CC[C@@H](CO)O2)c(=O)[nH]c1=O [ddT, dideoxythymidine]
IC50 (ORF2p core [1]; HTRF, NRTI NTPs): < 0.01 µM

Nc1ncn([C@H]2C[C@H](O)[C@@H](CO)O2)c(=O)n1 [decitabine, 5-aza-2ʹ-deoxycytidine]
interferon (IFN) production ([4]; 1 µM, THP1 monocytes): increased
